Assay results as given in US6410482B1, “(Het) arylsulfonylureas having an amino function, their presentation and their use as herbicides and plant growth regulators” (Hoechst Schering AgrEvo GmbH, priority 1996, dated 2002).

Assays:
[1] = test system: Sinapis alba, Stellaria media, Chrysanthemum segetum, and Lolium multiflorum; test: Post-emergence effect on weeds (greenhouse pot test, visual scoring); format: in vivo; conditions: applied post-emergence (three-leaf stage) at 0.3 kg to 0.005 kg of active ingredient per hectare; scored visually after about 3 to 4 weeks vs untreated controls
Procedure: Seeds or rhizome pieces of monocotyledonous and dicotyledonous weeds are placed in sandy loam soil in plastic pots, covered with soil and grown in a greenhouse under good growth conditions. Three weeks after sowing, the test plants are treated in the three-leaf stage. The compounds of the formula (I) or salts thereof according to the invention which have been formulated as wettable powders or as emulsion concentrates are sprayed in various dosages onto the green parts of the plants at an application rate of 600 to 800 l of water/ha (converted). After the test plants have remained in the greenhouse for about 3 to 4 weeks under ideal growth conditions, the effect of the preparations is scored visually by comparison with untreated controls. The agents according to the invention also have a good herbicidal post-emergence activity against a broad range of economically important grass weeds and broad-leaved weeds.

[2] = test system: Sinapis alba, Stellaria media, Chrysanthemum segetum, and Lolium multiflorum; test: Pre-emergence effect on weeds (greenhouse pot test, visual scoring); format: in vivo; conditions: applied pre-emergence at 0.3 kg to 0.005 kg of active ingredient per hectare; scored visually after 3 to 4 weeks vs untreated controls
Text: Seeds or rhizome pieces of monocotyledonous and dicotyledonous weed plants are placed in sandy loam soil in plastic pots and covered with soil. The compounds of the formula (I) or salts thereof according to the invention which have been formulated in the form of wettable powders or emulsion concentrates are then applied to the surface of the soil cover in the form of aqueous suspensions or emulsions at an application rate of […] of water/ha (converted), in various dosages.
After the treatment, the pots are placed in a greenhouse and kept under good growth conditions for the weeds. After the test plants have emerged after a period of 3 to 4 weeks, the damage to the plants or the negative effect on the emergence is scored visually by comparison with untreated controls. As shown by the test results, the compounds according to the invention have a good herbicidal pre-emergence activity against a broad spectrum of grass weeds and broad-leaved weeds.

## COc1cc(OC)nc(NC(=O)NS(=O)(=O)c2ccccc2N=CN(C)C)n1 [Example 1-1, N-[(4,6-dimethoxypyrimidin-2-yl)aminocarbonyl]-2-(2-dimethylamino-1-azaethenyl)benzenesulfonamide]
[1]
  herbicidal activity, post-emergence: very good herbicidal activity
[2]
  herbicidal activity, pre-emergence: very good herbicidal activity
other
  melting point: 209 to 210 °C (dec.)

## CCN(C=Nc1ccccc1S(=O)(=O)NC(=O)Nc1nc(OC)cc(OC)n1)CC [Example 1-5]
[1]
  herbicidal activity, post-emergence: very good herbicidal activity
[2]
  herbicidal activity, pre-emergence: very good herbicidal activity

## COc1cc(OC)nc(NC(=O)[N-]S(=O)(=O)c2ccccc2N=CN(C)C)n1.[Na+] [Example 1-14]
[1]
  herbicidal activity, post-emergence: very good herbicidal activity
[2]
  herbicidal activity, pre-emergence: very good herbicidal activity

## COC(=O)c1ccc(N=CN(C)C)cc1S(=O)(=O)NC(=O)Nc1nc(OC)cc(OC)n1 [Example 2-10, methyl 2-[[[[(4,6-dimethoxypyrimidin-2-yl)amino]carbonyl]amino]sulfonyl]-4-(2-dimethylamino-1-azaethenyl)-benzoate]
[1]
  herbicidal activity, post-emergence: very good herbicidal activity
[2]
  herbicidal activity, pre-emergence: very good herbicidal activity
other
  melting point: 73 to 75 °C

## COc1cc(OC)nc(NC(=O)NS(=O)(=O)c2cc(N=CN(C)C)ccc2C(=O)N(C)C)n1 [Example 2-15, N,N-dimethyl-2-[[[[(4,6-dimethoxypyrimidin-2-yl)-amino]carbonyl]amino]sulfonyl]-4-(2-dimethylamino-1-azaethenyl)-benzamide]
[1]
  herbicidal activity, post-emergence: very good herbicidal activity
[2]
  herbicidal activity, pre-emergence: very good herbicidal activity
other
  melting point: 140 to 141 °C (dec.)

## COc1cc(OC)nc(NC(=O)NS(=O)(=O)c2cc(N=CN(C)C)ccc2S(C)(=O)=O)n1 [Example 2-21]
[1]
  herbicidal activity, post-emergence: very good herbicidal activity
[2]
  herbicidal activity, pre-emergence: very good herbicidal activity

## CCS(=O)(=O)c1ccc(N=CN(C)C)cc1S(=O)(=O)NC(=O)Nc1nc(OC)cc(OC)n1 [Example 2-22]
[1]
  herbicidal activity, post-emergence: very good herbicidal activity
[2]
  herbicidal activity, pre-emergence: very good herbicidal activity

## CCC(=Nc1ccc(C(=O)OC)c(S(=O)(=O)NC(=O)Nc2nc(OC)cc(OC)n2)c1)N(C)C [Example 2-24]
[1]
  herbicidal activity, post-emergence: very good herbicidal activity
[2]
  herbicidal activity, pre-emergence: very good herbicidal activity

## COC(=O)c1ccc(N=C(C(C)C)N(C)C)cc1S(=O)(=O)NC(=O)Nc1nc(OC)cc(OC)n1 [Example 2-26]
[1]
  herbicidal activity, post-emergence: very good herbicidal activity
[2]
  herbicidal activity, pre-emergence: very good herbicidal activity

## COC(=O)c1ccc(N=CN2CCCC2)cc1S(=O)(=O)NC(=O)Nc1nc(OC)cc(OC)n1 [Example 2-36]
[1]
  herbicidal activity, post-emergence: very good herbicidal activity
[2]
  herbicidal activity, pre-emergence: very good herbicidal activity

## COC(=O)c1ccc(N=CN2CCCCC2)cc1S(=O)(=O)NC(=O)Nc1nc(OC)cc(OC)n1 [Example 2-37]
[1]
  herbicidal activity, post-emergence: very good herbicidal activity
[2]
  herbicidal activity, pre-emergence: very good herbicidal activity

## COC(=O)c1ccc(N=CN(C)C)cc1S(=O)(=O)NC(=O)Nc1nc(Cl)cc(OC)n1 [Example 2-39]
[1]
  herbicidal activity, post-emergence: very good herbicidal activity
[2]
  herbicidal activity, pre-emergence: very good herbicidal activity

## COC(=O)c1ccc(N=CN(C)C)cc1S(=O)(=O)NC(=O)Nc1nc(C)nc(OC)n1 [Example 2-41]
[1]
  herbicidal activity, post-emergence: very good herbicidal activity
[2]
  herbicidal activity, pre-emergence: very good herbicidal activity

## COc1cc(OC)nc(NC(=O)NS(=O)(=O)c2cccc(N=CN(C)C)c2)n1 [Example 2-47]
[1]
  herbicidal activity, post-emergence: very good herbicidal activity
[2]
  herbicidal activity, pre-emergence: very good herbicidal activity

## CCN(C=Nc1ccc(C(=O)OC)c(S(=O)(=O)NC(=O)Nc2nc(OC)cc(OC)n2)c1)CC [Example 2-48]
[1]
  herbicidal activity, post-emergence: very good herbicidal activity
[2]
  herbicidal activity, pre-emergence: very good herbicidal activity

## CCN(C=Nc1ccc(C(=O)OC)c(S(=O)(=O)[N-]C(=O)Nc2nc(OC)cc(OC)n2)c1)CC.[Na+] [Example 2-49]
[1]
  herbicidal activity, post-emergence: very good herbicidal activity
[2]
  herbicidal activity, pre-emergence: very good herbicidal activity

## CCN(C=Nc1ccc(S(=O)(=O)CC)c(S(=O)(=O)NC(=O)Nc2nc(OC)cc(OC)n2)c1)CC [Example 2-50]
[1]
  herbicidal activity, post-emergence: very good herbicidal activity
[2]
  herbicidal activity, pre-emergence: very good herbicidal activity

## COc1cc(OC)nc(NC(=O)NS(=O)(=O)c2ncccc2N=CN(C)C)n1 [Example 4-2]
[1]
  herbicidal activity, post-emergence: very good herbicidal activity

## COc1cc(OC)nc(NC(=O)NS(=O)(=O)c2ncccc2N=C(C(C)C)N(C)C)n1 [Example 4-17]
[1]
  herbicidal activity, post-emergence: very good herbicidal activity
[2]
  herbicidal activity, pre-emergence: very good herbicidal activity

## COc1cc(OC)nc(NC(=O)NS(=O)(=O)c2ncccc2N=C(C)N(C)C)n1 [Example 4-18]
[1]
  herbicidal activity, post-emergence: very good herbicidal activity
[2]
  herbicidal activity, pre-emergence: very good herbicidal activity

## CCC(=Nc1cccnc1S(=O)(=O)NC(=O)Nc1nc(OC)cc(OC)n1)N(C)C [Example 4-19]
[1]
  herbicidal activity, post-emergence: very good herbicidal activity
[2]
  herbicidal activity, pre-emergence: very good herbicidal activity

## COc1cc(OC)nc(NC(=O)NS(=O)(=O)c2sccc2N=C(C)N(C)C)n1 [Example 9-1]
[1]
  herbicidal activity, post-emergence: very good herbicidal activity
[2]
  herbicidal activity, pre-emergence: very good herbicidal activity

## COc1cc(OC)nc(NC(=O)[N-]S(=O)(=O)c2sccc2N=C(C)N(C)C)n1.[Na+] [Example 9-2]
[1]
  herbicidal activity, post-emergence: very good herbicidal activity
[2]
  herbicidal activity, pre-emergence: very good herbicidal activity

## COc1cc(OC)nc(NC(=O)NS(=O)(=O)c2sccc2N=C(C(C)C)N(C)C)n1 [Example 9-3]
[1]
  herbicidal activity, post-emergence: very good herbicidal activity
[2]
  herbicidal activity, pre-emergence: very good herbicidal activity

## COc1cc(OC)nc(NC(=O)[N-]S(=O)(=O)c2sccc2N=C(C(C)C)N(C)C)n1.[Na+] [Example 9-4]
[1]
  herbicidal activity, post-emergence: very good herbicidal activity
[2]
  herbicidal activity, pre-emergence: very good herbicidal activity

## COc1cc(OC)nc(NC(=O)NS(=O)(=O)c2sccc2N=CN(C)C)n1 [Example 9-5]
[1]
  herbicidal activity, post-emergence: very good herbicidal activity
[2]
  herbicidal activity, pre-emergence: very good herbicidal activity

## COc1cc(OC)nc(NC(=O)[N-]S(=O)(=O)c2sccc2N=CN(C)C)n1.[Na+] [Example 9-6]
[1]
  herbicidal activity, post-emergence: very good herbicidal activity
[2]
  herbicidal activity, pre-emergence: very good herbicidal activity

## COc1cc(OC)nc(NC(=O)NS(=O)(=O)c2c(N=CN(C)C)c(C)nn2C)n1 [Example 10-1]
[1]
  herbicidal activity, post-emergence: very good herbicidal activity
[2]
  herbicidal activity, pre-emergence: very good herbicidal activity

## COc1cc(OC)nc(NC(=O)[N-]S(=O)(=O)c2c(N=CN(C)C)c(C)nn2C)n1.[Na+] [Example 10-2]
[1]
  herbicidal activity, post-emergence: very good herbicidal activity
[2]
  herbicidal activity, pre-emergence: very good herbicidal activity
